Experimental data from PubChem BioAssay (NCI).
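Results reflect a 48-hour exposure of cells in 96-well plates to compound at five concentrations. Abbreviation: GI50, concentration required for 50% inhibition of growth. At the TGI there is no net growth.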

Legend:
Test in all cases: inhibition of tumour cell growth, NCI panel, 48 h
XF 498 CNS = test system: XF 498 CNS
UACC-257 melanoma = test system: UACC-257 melanoma
SK-OV-3 ovarian = test system: SK-OV-3 ovarian
786-0 renal = test system: 786-0 renal
SNB-78 CNS = test system: SNB-78 CNS
DMS 273 small cell lung = test system: DMS 273 small cell lung
SF-268 CNS = test system: SF-268 CNS
HL-60(TB) leukemia = test system: HL-60(TB) leukemia
SF-295 CNS = test system: SF-295 CNS
UO-31 renal = test system: UO-31 renal
HOP-18 NSCLC = test system: HOP-18 NSCLC
HCC-2998 colon = test system: HCC-2998 colon
M14 melanoma = test system: M14 melanoma
UACC-62 melanoma = test system: UACC-62 melanoma
NCI-H522 lung = test system: NCI-H522 lung
EKVX NSCLC = test system: EKVX NSCLC
KM20L2 colon = test system: KM20L2 colon
COLO 205 colon = test system: COLO 205 colon
HOP-62 NSCLC = test system: HOP-62 NSCLC
U251 CNS = test system: U251 CNS
DMS 114 small cell lung = test system: DMS 114 small cell lung
OVCAR-8 ovarian = test system: OVCAR-8 ovarian
KM12 colon = test system: KM12 colon
NCI-H226 lung = test system: NCI-H226 lung
LOX IMVI melanoma = test system: LOX IMVI melanoma
MALME-3M melanoma = test system: MALME-3M melanoma
HCT-116 colon = test system: HCT-116 colon
MOLT-4 leukemia = test system: MOLT-4 leukemia
SF-539 CNS = test system: SF-539 CNS
SN12C renal = test system: SN12C renal
RXF 393 renal = test system: RXF 393 renal
OVCAR-3 ovarian = test system: OVCAR-3 ovarian
SNB-75 CNS = test system: SNB-75 CNS
LXFL 529 NSCLC = test system: LXFL 529 NSCLC
SK-MEL-2 melanoma = test system: SK-MEL-2 melanoma
K-562 leukemia = test system: K-562 leukemia
SW-620 colon = test system: SW-620 colon
SK-MEL-5 melanoma = test system: SK-MEL-5 melanoma
HOP-92 NSCLC = test system: HOP-92 NSCLC
DLD-1 colon = test system: DLD-1 colon
RPMI-8226 leukemia = test system: RPMI-8226 leukemia
M19-MEL melanoma = test system: M19-MEL melanoma
NCI-H460 lung = test system: NCI-H460 lung
A549 NSCLC = test system: A549 NSCLC
HT29 colon = test system: HT29 colon
TK-10 renal = test system: TK-10 renal
CCRF-CEM leukemia = test system: CCRF-CEM leukemia
ACHN renal = test system: ACHN renal
IGROV1 ovarian = test system: IGROV1 ovarian
SNB-19 CNS = test system: SNB-19 CNS
NCI-H23 lung = test system: NCI-H23 lung
SK-MEL-28 melanoma = test system: SK-MEL-28 melanoma
OVCAR-5 ovarian = test system: OVCAR-5 ovarian
OVCAR-4 ovarian = test system: OVCAR-4 ovarian
HCT-15 colon = test system: HCT-15 colon
SR leukemia = test system: SR leukemia

C#C[C@]1(O)CCC2C3CCc4cc(Oc5nc(F)nc(-n6c(C)nc7cc8ccccc8cc76)n5)ccc4C3CCC21C (stereo partly drawn)
TGI (XF 498 CNS): > 100 µM | TGI (UACC-257 melanoma): > 100 µM | TGI (SK-OV-3 ovarian): > 100 µM | TGI (786-0 renal): > 100 µM | TGI (SNB-78 CNS): > 100 µM | TGI (DMS 273 small cell lung): > 100 µM | TGI (SF-268 CNS): > 100 µM | TGI (HL-60(TB) leukemia): > 100 µM | TGI (SF-295 CNS): > 100 µM | TGI (UO-31 renal): > 100 µM | TGI (HOP-18 NSCLC): > 100 µM | TGI (HCC-2998 colon): > 100 µM | TGI (M14 melanoma): > 100 µM | TGI (UACC-62 melanoma): > 100 µM | TGI (NCI-H522 lung): > 100 µM | TGI (EKVX NSCLC): > 100 µM | TGI (KM20L2 colon): > 100 µM | TGI (COLO 205 colon): 45.8 µM | TGI (HOP-62 NSCLC): > 100 µM | TGI (U251 CNS): > 100 µM | TGI (DMS 114 small cell lung): 53.8 µM | TGI (OVCAR-8 ovarian): > 100 µM | TGI (KM12 colon): > 100 µM | TGI (NCI-H226 lung): > 100 µM | TGI (LOX IMVI melanoma): > 100 µM | TGI (MALME-3M melanoma): > 100 µM | TGI (HCT-116 colon): > 100 µM | TGI (MOLT-4 leukemia): > 100 µM | TGI (SF-539 CNS): > 100 µM | TGI (SN12C renal): > 100 µM | TGI (RXF 393 renal): > 100 µM | TGI (OVCAR-3 ovarian): > 100 µM | TGI (SNB-75 CNS): > 100 µM | TGI (LXFL 529 NSCLC): > 100 µM | TGI (SK-MEL-2 melanoma): > 100 µM | TGI (K-562 leukemia): > 100 µM | TGI (SW-620 colon): > 100 µM | TGI (SK-MEL-5 melanoma): > 100 µM | TGI (HOP-92 NSCLC): > 100 µM | TGI (DLD-1 colon): > 100 µM | TGI (RPMI-8226 leukemia): > 100 µM | TGI (M19-MEL melanoma): > 100 µM | TGI (NCI-H460 lung): 65.9 µM | TGI (A549 NSCLC): > 100 µM | TGI (HT29 colon): > 100 µM | TGI (TK-10 renal): > 100 µM | TGI (CCRF-CEM leukemia): > 100 µM | TGI (ACHN renal): > 100 µM | TGI (IGROV1 ovarian): > 100 µM | TGI (SNB-19 CNS): > 100 µM | TGI (NCI-H23 lung): > 100 µM

COc1cc(C)cc2c1[nH]c1ccccc12
GI50 (XF 498 CNS): 22.6 µM | TGI (XF 498 CNS): > 25 µM | GI50 (SK-OV-3 ovarian): 20.9 µM | TGI (SK-OV-3 ovarian): > 25 µM | GI50 (786-0 renal): 9.37 µM | TGI (786-0 renal): > 25 µM | TGI (SNB-78 CNS): > 25 µM | GI50 (DMS 273 small cell lung): 7.73 µM | TGI (DMS 273 small cell lung): > 25 µM | GI50 (SF-268 CNS): 14.3 µM | TGI (SF-268 CNS): > 25 µM | GI50 (HL-60(TB) leukemia): 6.88 µM | TGI (HL-60(TB) leukemia): > 25 µM | GI50 (UO-31 renal): 15 µM | TGI (UO-31 renal): > 25 µM | GI50 (HOP-18 NSCLC): 0.29 µM | TGI (HOP-18 NSCLC): 12.7 µM | GI50 (HCC-2998 colon): 14.9 µM | TGI (HCC-2998 colon): > 25 µM | GI50 (M14 melanoma): 7.24 µM | TGI (M14 melanoma): 22.1 µM | GI50 (UACC-62 melanoma): 15 µM | TGI (UACC-62 melanoma): > 25 µM | GI50 (NCI-H522 lung): 4.24 µM | TGI (NCI-H522 lung): 13.3 µM | GI50 (KM20L2 colon): 7.53 µM | TGI (KM20L2 colon): 19.6 µM | GI50 (COLO 205 colon): 12.4 µM | TGI (COLO 205 colon): > 25 µM | TGI (HOP-62 NSCLC): 18.6 µM | GI50 (U251 CNS): 10.4 µM | TGI (U251 CNS): > 25 µM | TGI (DMS 114 small cell lung): > 25 µM | TGI (OVCAR-8 ovarian): 23.9 µM | GI50 (KM12 colon): 8.12 µM | TGI (KM12 colon): > 25 µM | GI50 (NCI-H226 lung): 8.44 µM | TGI (NCI-H226 lung): > 25 µM | GI50 (LOX IMVI melanoma): 12.7 µM | TGI (LOX IMVI melanoma): > 25 µM | GI50 (MALME-3M melanoma): 8.11 µM | TGI (MALME-3M melanoma): > 25 µM | GI50 (HCT-116 colon): 11.4 µM | TGI (HCT-116 colon): > 25 µM | GI50 (SF-539 CNS): 6.01 µM | TGI (SF-539 CNS): 14.5 µM | GI50 (SN12C renal): 14.1 µM | TGI (SN12C renal): > 25 µM | TGI (RXF 393 renal): 22.5 µM | TGI (OVCAR-3 ovarian): > 25 µM | GI50 (SK-MEL-28 melanoma): 16.3 µM | TGI (SK-MEL-28 melanoma): > 25 µM | TGI (OVCAR-5 ovarian): > 25 µM | GI50 (LXFL 529 NSCLC): 18.3 µM | TGI (LXFL 529 NSCLC): > 25 µM | GI50 (SK-MEL-2 melanoma): 7.33 µM | TGI (SK-MEL-2 melanoma): > 25 µM | TGI (K-562 leukemia): > 25 µM | GI50 (SW-620 colon): 8.35 µM | TGI (SW-620 colon): > 25 µM | GI50 (SK-MEL-5 melanoma): 9.19 µM | TGI (SK-MEL-5 melanoma): > 25 µM | GI50 (HOP-92 NSCLC): 23.5 µM | TGI (HOP-92 NSCLC): > 25 µM | GI50 (DLD-1 colon): 10.5 µM | TGI (DLD-1 colon): > 25 µM | TGI (RPMI-8226 leukemia): > 25 µM | TGI (OVCAR-4 ovarian): > 25 µM | GI50 (HCT-15 colon): 7.45 µM | TGI (HCT-15 colon): > 25 µM | GI50 (M19-MEL melanoma): 18.3 µM | TGI (M19-MEL melanoma): > 25 µM | GI50 (NCI-H460 lung): 7.83 µM | TGI (NCI-H460 lung): > 25 µM | TGI (A549 NSCLC): > 25 µM | GI50 (HT29 colon): 7.78 µM | TGI (HT29 colon): > 25 µM | TGI (TK-10 renal): > 25 µM | GI50 (CCRF-CEM leukemia): 15.4 µM | TGI (CCRF-CEM leukemia): > 25 µM | GI50 (SR leukemia): 10.3 µM | TGI (SR leukemia): > 25 µM | GI50 (ACHN renal): 23.4 µM | TGI (ACHN renal): > 25 µM | GI50 (IGROV1 ovarian): 14.8 µM | TGI (IGROV1 ovarian): > 25 µM | TGI (SNB-19 CNS): > 25 µM
